# Measured values reported in patent publication US9642361B2, “Method for changing the development pattern, increasing the growth and the accumulation of starch, changing the structure of starch and increasing the resistance to water stress in plants” (IDEN BIOTECHNOLOGY, S.L., priority 2010, dated 2017).
# Assays:
# [1] = system: leaves cut from Arabidopsis; experiment: Starch accumulation in cut Arabidopsis leaves with transcription/translation inhibitors in presence of fungal volatiles; assay type: in vivo, Arabidopsis thaliana; conditions: 50 μM cycloheximide or 200 μM cordycepin; after 2 hours of incubation
# Experimental: The experiment of section 5.1 was repeated, using in this case leaves cut from Arabidopsis incubated in Petri dishes with solid MS medium supplemented with 90 mM sucrose and, where appropriate, with 50 micromoles (μM) of translation inhibitor cycloheximide (Sigma) and 200 micromoles (μM) of transcription inhibitor cordycepin (Sigma) (Fritz, C. C. et al., 1991: Proc. Natl. Acad. Sci. USA 88: 4458-4462; Hayashi, T. and Takagi, S., 2003; Plant Cell Physiol. 44: 1027-1036; Dhonukshe et al., 2006: Developmental Cell 10: 137-150). The dishes were deposited in 500 cubic centimeter boxes in which cultures of Alternaria alternata had previously been deposited.
# [2] = system: Arabidopsis thaliana plants; experiment: Starch content in leaves of Arabidopsis plants cultured next to solutions of volatile compounds; assay type: in vivo; conditions: for starch accumulation in leaves: 2 cubic centimeters of 5% aqueous solution in 500 cubic centimeter box, two days
# Experimental: To that end, the plants were cultured in Petri dishes containing solid MS medium with 90 mM sucrose. The plants germinated and were grown for two weeks in growth chambers with a photoperiod of 16 h of light (300 μmol of photons s^−1 m^−2) and at a constant temperature of 24° C.
# The Petri dishes containing completely developed plants were placed in 500 cubic centimeter grow boxes with the particularity that, instead of microbial cultures, […] were introduced in said boxes in each case: indol, DTT (dithiothreitol), NAA (1-naphthaleneacetic acid), β-mercaptoethanol, salicylic acid, jasmonic acid, cysteine, acetoin, ethanol, methanol, β-hydroxybutyrate, butanediol, propanoic acid, acetic acid, acetaldehyde, formic acid or butyric acid, without there being any physical contact between the plant and the solution. The ethylene was provided in the form of ethephon powders. The boxes were sealed and leaves were harvested after two days of incubation to analyze starch content. Leaves were harvested at the end of the light period. As a negative control, the Petri dishes containing completely developed plants were cultured for two days in sealed plastic boxes together with a Petri dish containing 2 cubic centimeters of water in the absence of any of the volatile compounds assayed.
# Starch was measured using an amyloglucosidase-based test kit (Boehringer Mannheim, Germany).
# [3] = system: detached potato leaves; experiment: Starch content in detached potato leaves with added amino acids, with or without FVs; assay type: in vivo, Solanum tuberosum; conditions: exogenously added amino acid, +FV, 2 days
# Experimental: FIG. 19: Graph depicting the starch content (expressed as μmoles of glucose per gram of fresh weight) measured in potato plants cultured for 2 days in MS supplemented with 90 mM sucrose and the indicated concentrations of cysteine, glycine, serine and methionine in the absence (−FV) or in the presence (+FV) of volatiles emitted by A. alternata grown in solid MS medium supplemented with 90 mM sucrose.
# Therefore, it was investigated whether plastidial cysteine provision impairments are directly involved in MIVOISAP by measuring the starch content in detached potato leaves cultured in the presence and in the absence of FVs emitted by Alternaria alternata, and in the presence of different concentrations of cysteine.
Structure (SMILES),starch accumulation in leaves [2],other results
Nc1ncnc2c1ncn2[C@@H]1O[C@H](CO)C[C@H]1O [cordycepin],–,starch accumulation in presence of fungal volatiles [1]: strongly inhibit starch accumulation
C[C@@H]1C[C@@H]([C@H](O)CC2CC(=O)NC(=O)C2)C(=O)[C@@H](C)C1 [cycloheximide],–,starch accumulation in presence of fungal volatiles [1]: strongly inhibit starch accumulation
CC=O [acetaldehyde],promote starch overaccumulation,–
CCCC(=O)O [butyric acid],promote starch overaccumulation,–
O=CO [formic acid],promote starch overaccumulation,"dose dependence of the effect on starch accumulation ([2]; solutions at 1%, 2% or 5% (v/v)): dose-dependent"
N[C@@H](CS)C(=O)O [cysteine],–,MIVOISAP (starch content) in detached leaves [3]: strongly suppressed
CCC(=O)O [propanoic acid],promote starch overaccumulation,–
CC(=O)O [acetic acid],promote starch overaccumulation,–
